Patent US20240409585A1, “MACROCYCLIC IMMUNOMODULATORS” (priority 2021, published 2024)
Numbered stars: 1 amine (or outer) side, 2 acyl side, 3 side chain; on linkers, the order of the positions; unused ones are H or OH. Bridge positions count the residues as written; N and C are the ends. Square brackets hold non-standard residues; d marks the D form. Peptide text beside a SMILES is read from it. * marks the point of attachment. ξ: configuration not given here. Tyr(3,5-Br2) = N[C@@H](Cc1cc(Br)c(O)c(Br)c1)C(=O)O; Bip = N[C@@H](Cc1ccc(-c2ccccc2)cc1)C(=O)O; Phe(3-Me) = Cc1cccc(C[C@H](N)C(=O)O)c1; X41 = O=C([C@H](CC1CCCNC1)N[*:1])[*:2]; dPhe(3-F) = N[C@H](Cc1cccc(F)c1)C(=O)O; Val(3-OH) = CC(C)(O)[C@H](N)C(=O)O; 4Pal = N[C@@H](Cc1ccncc1)C(=O)O; Cha = N[C@@H](CC1CCCCC1)C(=O)O; Ile(3ξ) = CCC(C)[C@H](N)C(=O)O; Thr(3ξ) = CC(O)[C@H](N)C(=O)O; Carboxymethyl = O=C(O)C*; NMeA = CN[C@@H](C)C(=O)O; Dab = NCC[C@H](N)C(=O)O; Dap = NC[C@H](N)C(=O)O; ξC = NC(CS)C(=O)O

The molecules below were run against T1, PE-labeled human PD-L1-Ig binding to Jurkat cell line over-expressing human PD-1 (Jurkat-PD-1) (Homo sapiens, UniProt Q15116) (assay: Jurkat-PD-1 Cell Binding High-Content Screening Assay (CBA): Method 1). Settings: Jurkat HPDL1 PD1 IC50 (uM) (Method 1), Jurkat-hPD-1 cells, PE-labeled PD-L1-Ig 20 nM final.
T1 construct: expressed in transfected cells; host or cells: Jurkat
T1 sequence (Q15116 25-288): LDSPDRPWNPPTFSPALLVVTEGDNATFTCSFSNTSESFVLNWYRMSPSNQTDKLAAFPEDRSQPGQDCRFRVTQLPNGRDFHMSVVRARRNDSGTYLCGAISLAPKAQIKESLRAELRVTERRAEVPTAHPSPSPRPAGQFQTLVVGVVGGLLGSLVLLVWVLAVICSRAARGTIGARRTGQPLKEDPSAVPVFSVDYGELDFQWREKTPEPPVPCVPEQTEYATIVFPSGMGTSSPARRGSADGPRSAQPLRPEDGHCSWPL
With CC(C)C[C@@H]1NC(=O)[C@H](CCN)NC(=O)[C@@H](CC(C)C)NC(=O)[C@H](C)N(C)C(=O)[C@H](CCCNC(=N)N)NC(=O)[C@H](Cc2ccc(-c3ccccc3)cc2)NC(=O)[C@H](C(C)C)NC(=O)[C@H](Cc2c[nH]c3ccccc23)NC(=O)[C@H](CC(=O)O)NC(=O)[C@H](Cc2ccc(O)cc2)NC(=O)[C@H](CC(N)=O)NC(=O)CSC[C@@H](C(=O)N[C@@H](C)C(N)=O)NC(=O)[C@H](CO)NC(=O)[C@H](C(C)C)NC1=O [Compound 1054] ({CH2CO}-NYDWV[Bip]R[NMeA][dL][Dab]LVSCA-NH2; thioether N-14) the IC50 was 0.09 µM.

Same assay, conditions: Jurkat-hPD-1 cells, PE-labeled PD-L1-Ig 20 nM final; read-out: Jurkat HPDL1 PD1 IC50 (uM) (Method 1)
Molecule Cc1cccc(C[C@@H]2NC(=O)[C@H](CC(=O)O)NC(=O)[C@H](Cc3ccc(OCC(=O)O)cc3)NC(=O)[C@H](CN)NC(=O)CSC[C@@H](C(=O)N[C@@H](C)C(N)=O)NC(=O)[C@H]([C@@H](C)O)NC(=O)[C@H](C(C)C)NC(=O)[C@H](CC(C)C)NC(=O)[C@H](CCN)NC(=O)[C@@H](CC(C)C)NC(=O)[C@H](C)N(C)C(=O)[C@H](CCCNC(=N)N)NC(=O)[C@H](Cc3ccc(-c4ccccc4)cc3)NC(=O)[C@H](C(C)C)NC2=O)c1 [Compound 1456] ({CH2CO}-[Dap]Y(Carboxymethyl)D[Phe(3-Me)]V[Bip]R[NMeA][dL][Dab]LVTCA-NH2; thioether N-14) has an IC50 of 0.04 µM. For CC(C)C[C@@H]1NC(=O)[C@H](Cc2c[nH]c3ccccc23)NC(=O)[C@H](CC(=O)O)NC(=O)[C@H](Cc2ccc(O)cc2)NC(=O)[C@H](Cc2ccccc2)NC(=O)CSC[C@@H](C(=O)NCC(N)=O)NC(=O)[C@H](CO)NC(=O)[C@H](C(C)C)NC(=O)[C@H](CC(C)C)NC(=O)[C@H](CC(=O)O)NC(=O)[C@H](CC(C)C)NC(=O)[C@H](C)N(C)C(=O)[C@H](C(C)C)NC(=O)[C@H](Cc2ccc(-c3ccccc3)cc2)NC1=O [Compound 1824] ({CH2CO}-FYDWL[Bip]V[NMeA]LDLVSCG-NH2; thioether N-14), the IC50 was 0.63 µM. CC(C)C[C@@H]1NC(=O)[C@H](Cc2c[nH]c3ccccc23)NC(=O)[C@H](CC(=O)O)NC(=O)[C@H](Cc2ccc(O)cc2)NC(=O)[C@H](Cc2ccccc2)NC(=O)CSC[C@@H](C(=O)NCC(N)=O)NC(=O)[C@H](CO)NC(=O)[C@H](C(C)C)NC(=O)[C@H](CC(C)C)NC(=O)[C@H](CCN)NC(=O)[C@@H](CC(C)C)NC(=O)[C@H](C)N(C)C(=O)[C@H](C(C)C)NC(=O)[C@H](Cc2ccc(-c3ccccc3)cc2)NC1=O [Compound 1472] ({CH2CO}-FYDWL[Bip]V[NMeA][dL][Dab]LVSCG-NH2; thioether N-14) showed an IC50 of 0.01 µM. Work on Cc1cccc(C[C@@H]2NC(=O)[C@H](CC(=O)O)NC(=O)[C@H](Cc3ccc(OCC(=O)O)cc3)NC(=O)[C@H](CCN)NC(=O)CSC[C@@H](C(=O)N[C@@H](CCN)C(N)=O)NC(=O)[C@H](C(C)O)NC(=O)[C@H](C(C)C)NC(=O)[C@H](CC3CCCCC3)NC(=O)[C@H](CCN)NC(=O)[C@@H](CC(C)C)NC(=O)[C@H](C)N(C)C(=O)[C@H](Cc3ccc(OCC(=O)O)cc3)NC(=O)[C@H](Cc3ccc(-c4ccccc4)cc3)NC(=O)[C@H](Cc3ccc(OCC(=O)O)cc3)NC2=O)c1 (stereo partly drawn) [Compound 2154] ({CH2CO}-[Dab]Y(Carboxymethyl)D[Phe(3-Me)]Y(Carboxymethyl)[Bip]Y(Carboxymethyl)[NMeA][dL][Dab][Cha]V[Thr(3ξ)]C[Dab]-NH2; thioether N-14) yielded an IC50 of 0.01 µM. Work on CC(C)C[C@@H]1NC(=O)[C@H](CCCNC(=N)N)NC(=O)[C@@H](Cc2cccc(F)c2)NC(=O)[C@H](C)N(C)C(=O)[C@H](CCCNC(=N)N)NC(=O)[C@H](Cc2ccc(-c3ccccc3)cc2)NC(=O)[C@H](C(C)C)NC(=O)[C@H](Cc2c[nH]c3ccccc23)NC(=O)[C@H](CC(=O)O)NC(=O)[C@H](Cc2ccc(O)cc2)NC(=O)[C@H](Cc2ccccc2)NC(=O)CSC[C@@H](C(=O)N[C@@H](C)C(N)=O)NC(=O)[C@H]([C@@H](C)O)NC(=O)[C@H](C(C)C)NC1=O [Compound 1071] ({CH2CO}-FYDWV[Bip]R[NMeA][dPhe(3-F)]RLVTCA-NH2; thioether N-14) yielded an IC50 of 0.13 µM. CC(C)C[C@@H]1NC(=O)CSC[C@@H](C(=O)NCC(N)=O)NC(=O)[C@H](CO)NC(=O)[C@H](C(C)C)NC(=O)[C@H](CC(C)C)NC(=O)[C@H](CC(N)=O)NC(=O)[C@H](CC(N)=O)NC(=O)[C@H](C)N(C)C(=O)[C@H](C(C)C)NC(=O)[C@H](Cc2ccc(-c3ccccc3)cc2)NC(=O)[C@H](CC(C)C)NC(=O)[C@H](Cc2c[nH]c3ccccc23)NC(=O)[C@H](CC(=O)O)NC(=O)[C@H](Cc2ccc(O)cc2)NC1=O [Compound 1815] ({CH2CO}-LYDWL[Bip]V[NMeA]NNLVSCG-NH2; thioether N-14) gave an IC50 of 0.31 µM. Molecule CCC(C)[C@@H]1NC(=O)[C@H](Cc2ccc(-c3ccccc3)cc2)NC(=O)[C@H](C(C)C)NC(=O)[C@H](Cc2c[nH]c3ccccc23)NC(=O)[C@H](CC(=O)O)NC(=O)[C@H](Cc2ccc(O)cc2)NC(=O)[C@H](CC2CCCNC2)NC(=O)CSC[C@@H](C(=O)N[C@@H](C)C(N)=O)NC(=O)[C@H](C(C)O)NC(=O)[C@H](C(C)C)NC(=O)[C@H](CC2CCCCC2)NC(=O)[C@H](CCN)NC(=O)[C@@H](CC(C)C)NC(=O)[C@H](C)N(C)C1=O (stereo partly drawn) [Compound 2051] ({CH2CO}-[X41]YDWV[Bip][Ile(3ξ)][NMeA][dL][Dab][Cha]V[Thr(3ξ)]CA-NH2; thioether N-14) has an IC50 of 0.01 µM. CC(C)C[C@@H]1NC(=O)[C@H](CCCNC(=N)N)NC(=O)[C@@H](CC(C)C)NC(=O)[C@H](C)N(C)C(=O)[C@H](CCCNC(=N)N)NC(=O)[C@H](Cc2ccc(-c3ccccc3)cc2)NC(=O)[C@H](C(C)C)NC(=O)[C@H](Cc2c[nH]c3ccccc23)NC(=O)[C@H](CC(=O)O)NC(=O)[C@H](Cc2cc(Br)c(O)c(Br)c2)NC(=O)[C@H](Cc2ccccc2)NC(=O)CSC[C@@H](C(=O)N[C@@H](C)C(N)=O)NC(=O)[C@H]([C@@H](C)O)NC(=O)[C@H](C(C)C)NC1=O [Compound 1092] ({CH2CO}-F[Tyr(3,5-Br2)]DWV[Bip]R[NMeA][dL]RLVTCA-NH2; thioether N-14) was tested, and the IC50 was 0.42 µM. With CCC(C)[C@@H]1NC(=O)[C@H](Cc2ccc(-c3ccccc3)cc2)NC(=O)[C@H](C(C)C)NC(=O)[C@H](Cc2cccc(C)c2)NC(=O)[C@H](CC(=O)O)NC(=O)[C@H](Cc2ccc(OCC(=O)O)cc2)NC(=O)[C@H](Cc2ccncc2)NC(=O)CSCC(C(=O)N[C@@H](CCC(=O)O)C(=O)N[C@@H](CN)C(=O)O)NC(=O)[C@H](CO)NC(=O)[C@H](C(C)C)NC(=O)[C@H](CC2CCCCC2)NC(=O)[C@H](CC(N)=O)NC(=O)[C@@H](CC(C)C)NC(=O)[C@H](C)N(C)C1=O (stereo partly drawn) [Compound 2007] ({CH2CO}-[4Pal]Y(Carboxymethyl)D[Phe(3-Me)]V[Bip][Ile(3ξ)][NMeA][dL]N[Cha]VS[ξC]E[Dap]-OH; thioether N-14) the IC50 was 0.01 µM. Molecule Cc1cccc(C[C@@H]2NC(=O)[C@H](CC(=O)O)NC(=O)[C@H](Cc3ccc(OCC(=O)O)cc3)NC(=O)[C@H](C(C)O)NC(=O)CSC[C@@H](C(=O)N[C@H](CC(N)=O)C(N)=O)NC(=O)[C@H](CO)NC(=O)[C@H](C(C)(C)O)NC(=O)[C@H](CC3CCCCC3)NC(=O)[C@H](CCN)NC(=O)[C@@H](CC(C)C)NC(=O)[C@H](C)N(C)C(=O)[C@H](Cc3ccc(O)cc3)NC(=O)[C@H](Cc3ccc(-c4ccccc4)cc3)NC(=O)[C@H](Cc3ccc(O)cc3)NC2=O)c1 (stereo partly drawn) [Compound 2142] ({CH2CO}-[Thr(3ξ)]Y(Carboxymethyl)D[Phe(3-Me)]Y[Bip]Y[NMeA][dL][Dab][Cha][Val(3-OH)]SC[dN]-NH2; thioether N-14) has an IC50 of 0.18 µM.
